Test results from patent US7514421B2, “Use of an IBAT inhibitor for the treatment of constipation” (Albireo AB, priority 2003, dated 2009).

Tested on: constipated dog
Experiment: Buenos dog model for constipation (low fibre/high protein diet, 20 g meat/kg dog/day)
Type: in vivo
Conditions: constipated dogs
From the text: As stated hereinbefore the compounds defined in the present invention are useful in the treatment of functional constipation and C-IBS. These properties may be assessed, for example, using models known in the art: • Buenos dog model for constipation, (Hepato-gasteroenterology, 1980, 27, 381-389).
Once constipation has been induced the animals can be dosed with an IBAT inhibitor to asses the ability of the IBAT inhibitor to relieve the constipation.
The following data was generated using the Buenos dog model (method described in the publication above) with the modification that the dogs were given 20 g meat/kg dog/day. The result is calculated as mean value of the increase of faeces during the three treatment days subtracted with the entry value (day before start of treatment with the IBAT inhibitor). The dogs were judge as constipation if there faeces amount per day was below 30 gram.

Compound	Result: mean increase of faeces during the three treatment days subtracted with the entry value (dose 1.5 μmol/kg, 2 animals)	Result: mean increase of faeces during the three treatment days subtracted with the entry value (dose 1.5 μmol/kg, 2 animals, listed as compound 3)	Result: mean increase of faeces during the three treatment days subtracted with the entry value (dose 1.5 μmol/kg, 2 animals, listed as compound 2)	Result: mean increase of faeces during the three treatment days subtracted with the entry value (dose 5 μmol/kg, 3 animals)	Result: mean increase of faeces during the three treatment days subtracted with the entry value (dose 5 μmol/kg, 3 animals, listed as compound 1)
CCCCC1(CCCC)CN(c2ccccc2)c2cc(SC)c(OCC(=O)N[C@@H](C(=O)N[C@H](C(=O)O)C(C)C)c3ccc(O)cc3)cc2S(=O)(=O)N1 [Compound 3, 1,1-Dioxo-3,3-dibutyl-5-phenyl-7-methylthio-8-(N-{(R)-α-[N-((S)-1-carboxy-2-methylpropyl)carbamoyl]-4-hydroxybenzyl}carbamoylmethoxy)-2,3,4,5-tetrahydro-1,2,5-benzothiadiazepine]	39 ± 2 g/day	39 ± 2 g/day	–	–	–
CCCCC1(CCCC)CN(c2ccccc2)c2cc(SC)c(OCC(=O)N[C@@H](C(=O)N[C@H](C(=O)O)[C@@H](C)O)c3ccc(O)cc3)cc2S(=O)(=O)N1 [Compound 2, 1,1-Dioxo-3,3-dibutyl-5-phenyl-7-methylthio-8-(N-{(R)-α-[N-((S)-1-carboxy-2-(R)-hydroxypropyl)carbamoyl]-4-hydroxybenzyl}carbamoylmethoxy)-2,3,4,5-tetrahydro-1,2,5-benzothiadiazepine]	23 ± 11 g/day	–	23 ± 11 g/day	–	–
CCCCC1(CCCC)CN(c2ccccc2)c2cc(SC)c(OCC(=O)N[C@@H](C(=O)NCCS(=O)(=O)O)c3ccc(O)cc3)cc2S(=O)(=O)N1 [Compound 1, 1,1-Dioxo-3,3-dibutyl-5-phenyl-7-methylthio-8-(N-{(R)-α-[N-(2-sulphoethyl)carbamoyl]-4-hydroxybenzyl}carbamoylmethoxy)-2,3,4,5-tetrahydro-1,2,5-benzothiadiazepine]	–	–	–	38 ± 7 g/day	38 ± 7 g/day
